From patent publication US20250235543A1, “MODIFIED PROTEINS AND PROTEIN DEGRADERS” (Cullgen (Shanghai), Inc., priority 2021, published 2025) come the findings set out here.

Experiment [1] concerns cyclin D1. Kind of experiment: Cyclin D1 percentage degradation in Calu-1 cells (immunoblotting). It counts as cell-based. The settings on record: 200 nM, 16 hours. The method in brief: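 Cyclin D1 degradation was assessed by western blot. Clarified lysates, obtained by RIPA lysis with inhibitors and centrifugation at 13,000 rpm, were normalized by BCA protein assay and separated by SDS-PAGE. Bands were detected with Western ECL Substrate on a Bio-Rad ChemiDoc MP Imaging system and quantified in Image Lab software to derive percentage degradation.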

The target of experiment [2] is T1, CDK4 (Homo sapiens, UniProt P11802).
T1 construct: endogenous in cells; host or cells: Calu-1
Kind of experiment: CDK4 percentage degradation in Calu-1 cells (immunoblotting). It counts as cell-based. The following applies: read-out: CDK4 Degradation (200 nM). An outline of the steps:
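CDK4 degradation was measured by immunoblotting. Cells were washed in cold PBS and lysed in RIPA buffer with inhibitors for 30 min at 4° C., then spun at 13,000 rpm to clear. After BCA protein determination, lysates were heated at 99° C. for 5 min in Laemmli buffer, resolved on SDS-PAGE, imaged on a ChemiDoc MP with ECL substrate, and band intensities quantified.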

Read-outs that look alike come from different tables or passages of the source.

T1 sequence (P11802 2-303 limits assumed): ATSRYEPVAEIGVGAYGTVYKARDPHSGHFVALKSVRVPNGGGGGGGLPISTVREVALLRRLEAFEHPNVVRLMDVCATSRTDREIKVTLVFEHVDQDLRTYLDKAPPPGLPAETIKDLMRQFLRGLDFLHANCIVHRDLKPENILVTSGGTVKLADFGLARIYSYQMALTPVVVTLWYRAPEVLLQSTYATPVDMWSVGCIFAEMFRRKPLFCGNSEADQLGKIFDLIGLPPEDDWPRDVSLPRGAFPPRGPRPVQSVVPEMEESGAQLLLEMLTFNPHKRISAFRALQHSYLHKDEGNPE
T1 sequence (P24385 whole entry partner): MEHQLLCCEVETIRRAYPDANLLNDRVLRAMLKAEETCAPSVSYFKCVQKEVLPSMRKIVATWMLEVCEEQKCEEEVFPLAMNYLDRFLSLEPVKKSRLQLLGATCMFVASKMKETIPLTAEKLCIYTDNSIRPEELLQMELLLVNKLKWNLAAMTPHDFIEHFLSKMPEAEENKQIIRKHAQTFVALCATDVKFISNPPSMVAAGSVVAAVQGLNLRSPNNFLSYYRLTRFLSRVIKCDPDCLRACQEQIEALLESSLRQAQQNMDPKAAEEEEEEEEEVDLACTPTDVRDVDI
T1 sequence (Q16531 2-1140 limits assumed, further chain): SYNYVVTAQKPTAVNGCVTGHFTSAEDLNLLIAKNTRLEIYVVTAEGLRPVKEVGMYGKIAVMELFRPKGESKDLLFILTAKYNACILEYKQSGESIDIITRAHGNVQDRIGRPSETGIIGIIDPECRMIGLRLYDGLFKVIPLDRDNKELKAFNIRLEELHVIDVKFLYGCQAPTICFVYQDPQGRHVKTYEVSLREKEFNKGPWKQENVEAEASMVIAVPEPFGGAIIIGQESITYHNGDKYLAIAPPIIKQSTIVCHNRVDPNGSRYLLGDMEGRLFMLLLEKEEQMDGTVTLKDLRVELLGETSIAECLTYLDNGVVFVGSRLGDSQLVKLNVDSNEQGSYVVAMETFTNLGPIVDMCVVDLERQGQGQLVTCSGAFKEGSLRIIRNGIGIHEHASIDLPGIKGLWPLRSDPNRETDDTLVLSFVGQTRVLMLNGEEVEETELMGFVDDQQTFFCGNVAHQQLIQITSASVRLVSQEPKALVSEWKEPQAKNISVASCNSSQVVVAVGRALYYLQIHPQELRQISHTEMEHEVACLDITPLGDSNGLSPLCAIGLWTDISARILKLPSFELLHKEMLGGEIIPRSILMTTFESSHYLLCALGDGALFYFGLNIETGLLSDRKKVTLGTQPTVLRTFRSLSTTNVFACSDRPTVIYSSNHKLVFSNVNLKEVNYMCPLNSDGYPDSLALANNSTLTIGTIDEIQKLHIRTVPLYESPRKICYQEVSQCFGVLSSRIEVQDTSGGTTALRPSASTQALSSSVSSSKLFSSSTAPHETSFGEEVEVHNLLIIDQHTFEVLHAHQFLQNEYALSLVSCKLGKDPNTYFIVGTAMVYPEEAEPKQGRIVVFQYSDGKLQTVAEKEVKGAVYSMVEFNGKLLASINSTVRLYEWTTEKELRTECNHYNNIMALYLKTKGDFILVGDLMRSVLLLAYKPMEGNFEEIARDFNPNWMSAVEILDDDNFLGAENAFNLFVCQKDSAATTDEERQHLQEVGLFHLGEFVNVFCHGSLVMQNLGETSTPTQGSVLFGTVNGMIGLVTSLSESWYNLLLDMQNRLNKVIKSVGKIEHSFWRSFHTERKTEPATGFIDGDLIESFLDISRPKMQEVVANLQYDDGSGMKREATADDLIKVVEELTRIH

Turning to `CC(=O)c1c(C)c2cnc(Nc3ccc(N4CCN(CC(=O)NCCOCCOCCC(=O)Nc5ccccc5C(=O)Nc5nc(C6CCNCC6)c(C)s5)CC4)cn3)nc2n(C2CCCC2)c1=O` [CPD-072, 2-(3-(2-(2-(2-(4-(6-((6-Acetyl-8-cyclopentyl-5-methyl-7-oxo-7,8-dihydropyrido[2,3-d]pyrimidin-2-yl)amino)pyridin-3-yl)piperazin-1-yl)acetamido)ethoxy)ethoxy)propanamido)-N-(5-methyl-4-(piperidin-4-yl)thiazol-2-yl)benzamide], the “CyclinD1 Degradation (200 nM)” value in experiment [1] is “D (protein percentage degradation <30%)”. Moreover, in experiment [2] (Calu-1 cells, 200 nM, 16 hours), the inhibition at 0.2 µM fell in the range of 50 to 80%.

Turning to `CC(=O)c1c(C)c2cnc(Nc3ccc(N4CCN(CC(=O)NCCOCCOCCC(=O)Nc5ccccc5C(=O)Nc5cc[nH]n5)CC4)cn3)nc2n(C2CCCC2)c1=O` [CPD-073, 2-(3-(2-(2-(2-(4-(6-((6-Acetyl-8-cyclopentyl-5-methyl-7-oxo-7,8-dihydropyrido[2,3-d]pyrimidin-2-yl)amino)pyridin-3-yl)piperazin-1-yl)acetamido)ethoxy)ethoxy)propanamido)-N-(1H-pyrazol-3-yl)benzamide], in experiment [1], the “CyclinD1 Degradation (200 nM)” value was “D (protein percentage degradation <30%)”. The inhibition at 0.2 µM in experiment [2] (Calu-1 cells, 200 nM, 16 hours) lay in the range of 50 to 80%.

In the case of `CC(=O)c1c(C)c2cnc(Nc3ccc(N4CCN(CC(=O)NCCOCCOCCC(=O)Nc5ccccc5C(=O)Nc5cc(C)[nH]n5)CC4)cn3)nc2n(C2CCCC2)c1=O` [CPD-074, 2-(3-(2-(2-(2-(4-(6-((6-Acetyl-8-cyclopentyl-5-methyl-7-oxo-7,8-dihydropyrido[2,3-d]pyrimidin-2-yl)amino)pyridin-3-yl)piperazin-1-yl)acetamido)ethoxy)ethoxy)propanamido)-N-(5-methyl-1H-pyrazol-3-yl)benzamide], the “CyclinD1 Degradation (200 nM)” value in experiment [1] is “B (protein percentage degradation <80%, and >=50%)”. In addition, the inhibition at 0.2 µM in experiment [2] (Calu-1 cells, 200 nM, 16 hours) fell in the range of 50 to 80%.

As to `CCc1nc(NC(=O)c2ccccc2NC(=O)CCOCCOCCNC(=O)CN2CCN(c3ccc(Nc4ncc5c(C)c(C(C)=O)c(=O)n(C6CCCC6)c5n4)nc3)CC2)sc1C` [CPD-075, 2-(3-(2-(2-(2-(4-(6-((6-Acetyl-8-cyclopentyl-5-methyl-7-oxo-7,8-dihydropyrido[2,3-d]pyrimidin-2-yl)amino)pyridin-3-yl)piperazin-1-yl)acetamido)ethoxy)ethoxy)propanamido)-N-(4-ethyl-5-methylthiazol-2-yl)benzamide], the “CyclinD1 Degradation (200 nM)” value in experiment [1] is “A (protein percentage degradation >=80%)”. The inhibition at 0.2 µM in experiment [2] (Calu-1 cells, 200 nM, 16 hours) is > 80%.

Turning to `CC(=O)c1c(C)c2cnc(Nc3ccc(N4CCN(CC(=O)NCCOCCOCCC(=O)Nc5ccccc5C(=O)Nc5cc(C)n(C(C)C)n5)CC4)cn3)nc2n(C2CCCC2)c1=O` [CPD-076, 2-(3-(2-(2-(2-(4-(6-((6-Acetyl-8-cyclopentyl-5-methyl-7-oxo-7,8-dihydropyrido[2,3-d]pyrimidin-2-yl)amino)pyridin-3-yl)piperazin-1-yl)acetamido)ethoxy)ethoxy)propanamido)-N-(1-isopropyl-5-methyl-1H-pyrazol-3-yl)benzamide], in experiment [1], the “CyclinD1 Degradation (200 nM)” value was “C (protein percentage degradation <50%, and >=30%)”. In addition, the inhibition at 0.2 µM in experiment [2] (Calu-1 cells, 200 nM, 16 hours) fell in the range of 50 to 80%.

For the molecule `CC(=O)c1c(C)c2cnc(Nc3ccc(N4CCN(CC(=O)NCCOCCOCCC(=O)Nc5ccccc5C(=O)Nc5nc(C(F)(F)F)c(C)s5)CC4)cn3)nc2n(C2CCCC2)c1=O` [CPD-077, 2-(3-(2-(2-(2-(4-(6-((6-Acetyl-8-cyclopentyl-5-methyl-7-oxo-7,8-dihydropyrido[2,3-d]pyrimidin-2-yl)amino)pyridin-3-yl)piperazin-1-yl)acetamido)ethoxy)ethoxy)propanamido)-N-(5-methyl-4-(trifluoromethyl)thiazol-2-yl)benzamide], the “CyclinD1 Degradation (200 nM)” value in experiment [1] is “D (protein percentage degradation <30%)”. Moreover, the inhibition at 0.2 µM in experiment [2] (Calu-1 cells, 200 nM, 16 hours) was in the range of 50 to 80%.

For the molecule `CC(=O)c1c(C)c2cnc(Nc3ccc(N4CCN(CCCCCCCCCCNc5cccc(C(=O)Nc6nc(C)c(C)s6)c5C)CC4)cn3)nc2n(C2CCCC2)c1=O` [CPD-078, 3-((10-(4-(6-((6-Acetyl-8-cyclopentyl-5-methyl-7-oxo-7,8-dihydropyrido[2,3-d]pyrimidin-2-yl)amino)pyridin-3-yl)piperazin-1-yl)decyl)amino)-N-(4,5-dimethylthiazol-2-yl)-2-methylbenzamide], the “CyclinD1 Degradation (200 nM)” value in experiment [1] is recorded as “D (protein percentage degradation <30%)”. For the same molecule, the inhibition at 0.2 µM in experiment [2] (Calu-1, 16 h) is < 30%.

Consider `CC(=O)c1c(C)c2cnc(Nc3ccc(N4CCN(CC(=O)NCCOCCOCCC(=O)Nc5ccccc5C(=O)Nc5cc(C6CC6)n(C)n5)CC4)cn3)nc2n(C2CCCC2)c1=O` [CPD-079, 2-(3-(2-(2-(2-(4-(6-((6-Acetyl-8-cyclopentyl-5-methyl-7-oxo-7,8-dihydropyrido[2,3-d]pyrimidin-2-yl)amino)pyridin-3-yl)piperazin-1-yl)acetamido)ethoxy)ethoxy)propanamido)-N-(5-cyclopropyl-1-methyl-1H-pyrazol-3-yl)benzamide], for which the “CyclinD1 Degradation (200 nM)” value in experiment [1] is given as “D (protein percentage degradation <30%)”. In experiment [2] (Calu-1 cells, 200 nM, 16 hours), the inhibition at 0.2 µM was < 30%.

As for `CC(=O)c1c(C)c2cnc(Nc3ccc(N4CCN(CC(=O)NCCOCCOCCC(=O)Nc5ccccc5C(=O)Nc5nc(C6CCN(C)CC6)c(C)s5)CC4)cn3)nc2n(C2CCCC2)c1=O` [CPD-080, 2-(3-(2-(2-(2-(4-(6-((6-Acetyl-8-cyclopentyl-5-methyl-7-oxo-7,8-dihydropyrido[2,3-d]pyrimidin-2-yl)amino)pyridin-3-yl)piperazin-1-yl)acetamido)ethoxy)ethoxy)propanamido)-N-(5-methyl-4-(1-methylpiperidin-4-yl)thiazol-2-yl)benzamide], the “CyclinD1 Degradation (200 nM)” value in experiment [1] was “D (protein percentage degradation <30%)”. The inhibition at 0.2 µM in experiment [2] (Calu-1 cells, 200 nM, 16 hours) was < 30%.

As to `CC(=O)c1c(C)c2cnc(Nc3ccc(N4CCN(CC(=O)NCCOCCOCCC(=O)Nc5ccccc5C(=O)Nc5ccc(F)cn5)CC4)cn3)nc2n(C2CCCC2)c1=O` [CPD-081, 2-(3-(2-(2-(2-(4-(6-((6-Acetyl-8-cyclopentyl-5-methyl-7-oxo-7,8-dihydropyrido[2,3-d]pyrimidin-2-yl)amino)pyridin-3-yl)piperazin-1-yl)acetamido)ethoxy)ethoxy)propanamido)-N-(5-fluoropyridin-2-yl)benzamide], the “CyclinD1 Degradation (200 nM)” value in experiment [1] is reported as “A (protein percentage degradation >=80%)”. Further, the inhibition at 0.2 µM in experiment [2] (Calu-1 cells, 200 nM, 16 hours) was > 80%.

Turning to `CC(=O)c1c(C)c2cnc(Nc3ccc(N4CCN(CC(=O)NCCOCCOCCC(=O)Nc5ccccc5C(=O)Nc5ccc(Cl)cn5)CC4)cn3)nc2n(C2CCCC2)c1=O` [CPD-082, 2-(3-(2-(2-(2-(4-(6-((6-Acetyl-8-cyclopentyl-5-methyl-7-oxo-7,8-dihydropyrido[2,3-d]pyrimidin-2-yl)amino)pyridin-3-yl)piperazin-1-yl)acetamido)ethoxy)ethoxy)propanamido)-N-(5-chloropyridin-2-yl)benzamide], the “CyclinD1 Degradation (200 nM)” value in experiment [1] is on record as “A (protein percentage degradation >=80%)”. For the same molecule, in experiment [2] (Calu-1 cells, 200 nM, 16 hours), the inhibition at 0.2 µM is > 80%.
